In the SangsterLogP compilation:

Tests used:
[1] = not given; remark: listed apart in the source
[2] = method code SF, from DOI: 10.1080/10826070801924857
[3] = not given; remark: listed apart in the source
[4] = method code …, from Wiggins, H.; Karcher, A.; Michael Wilson, J.; Robb, I. (2008). Determining Octanol/Water Partitioning Coefficients for Industrial Surfactants. Proc. 15th Annual International Petroleum & Biofuels …
[5] = method code SF-HPLC, from DOI: 10.1002/ps.2780440103; conditions: pH 2.0
[6] = method code SF-AS, from DOI: 10.1002/chin.199416148, PMID: 8117185
[7] = method code SF-AS, from PMID: 6540096; conditions: pH 7.5
[8] = method code SF-HPLC, from DOI: 10.1021/jm030477w, PMID: 15084119; conditions: pH 7.4
[9] = method code SF-AS, from DOI: 10.1248/cpb.42.1084, PMID: 8069960
[10] = method code G, from Wang, L.; Li, H.; Wang, X.; Zhang, Z. (1993). Determination of aqueous solubilities and partition coefficients of substitutive ethylketone congeners by generator column. Huanjing Huaxue, 12(2)151-154.
[11] = not given; remark: listed apart in the source
[12] = from Nishimura, K.; Okajima, N.; Fujita, T.; Nakajima, M. (1982). Quantitative structure-activity studies of substituted benzylchrysanthemates. IV. Physicochemical properties and rate of progress of the …
[13] = method code SF-AS, from PMID: 3774812; conditions: pH 4.0
[14] = not given; remark: listed apart in the source
[15] = method code SF-AS, from DOI: 10.1021/jm00296a014, PMID: 5418493
[16] = not given; remark: listed apart in the source
[17] = method code SF-HPLC, from DOI: 10.1016/j.apradiso.2007.04.014, PMID: 17574425; conditions: pH 7.4
[18] = method code SF-HPLC, from PMID: 1854437; conditions: pH 7.4
[19] = method code SF, from DOI: 10.1016/s0223-5234(99)80097-x; conditions: pH 7.5
[20] = not given; remark: listed apart in the source
[21] = method code SF, from DOI: 10.1023/a:1012119527214, PMID: 9453056; conditions: pH 12.5
[22] = method code SF-RC, from DOI: 10.1021/jm000079i, PMID: 10956218; conditions: pH 7.4
[23] = method code SF-HPLC, from DOI: 10.1021/js950346l, PMID: 9109056
[24] = not given; remark: listed apart in the source
[25] = method code SF-HPLC, from DOI: 10.1021/jf0483669, PMID: 15913295; conditions: pH 7.4
[26] = not given; remark: listed apart in the source
[27] = method code SF-HPLC, from DOI: 10.1006/pest.1998.2384
[28] = from Afshan, A.; Jehangir, M.; Amin, W.; Mujahid, A. (2000). Study of various esters of ethylcysteine acid dimer as brain perfusion imaging agents and formulation into single vial kit for labelling with …; conditions: pH 7.5
[29] = method code SF, from DOI: 10.1016/s0021-9673(03)00534-x, PMID: 12800922; conditions: pH 11.0
[30] = method code SF-AS, from DOI: 10.1248/cpb.28.3673
[31] = method code SF-AS, from M. Kuchar, J. Tomkova, V. Rejholec, & O. Roubinek. (1992). Some problems of the chromatographic evaluation of lipophicity. In Kuchar, M. (Ed.) QSAR in Design of Bioactive Compounds (pp. 65-81). Prous …; conditions: pH 3.4
[32] = from Comini, L.; Núñez Montoya, S.; Argüello, G.; Cabrera, J. (2006). Partition coefficient (log P) determination of anthraquinone derivatives isolated from Heterophyllaea pustulata Hook, f. (Rubiaceae). …; conditions: pH 7.4

Structure (SMILES): O=C(NC1CCCCCC1)NS(=O)(=O)c1cnccc1Nc1cccc(C(F)(F)F)c1
- logP: 2.02

Structure (SMILES): CCc1cccc(N(C)C(=N)Nc2cc(SC)ccc2Cl)c1
- logP [1]: 3

Structure (SMILES): CCCCCCOC(=O)OC[C@@H]1O[C@H](n2ccc(N)nc2=O)CS1
- logP [2]: 1.57

Structure (SMILES): CC(=O)CC(c1ccccc1)c1c(O)c2ccccc2oc1=O (stereo not given)
- logP [3]: 2.4

Structure (SMILES): CCCCCCCCCCCCOCCOCCOCCOCCOCCOCCO
- logP [4]: 4.81

Structure (SMILES): CSC(=NOC(=O)N(C)COC1OC(C(=O)O)C(O)C(O)C1O)C(=O)N(C)C (stereo not given)
- logD [5]: -1.98

Structure (SMILES): O=C(CCN1CCOCC1)CN1C(=O)C2CC=CCC2C1=O (stereo not given)
- logP [6]: 0.56

Structure (SMILES): O=C1CN=C(c2ccccc2Cl)c2cc([N+](=O)[O-])ccc2N1
- logD [7]: 2.5

Structure (SMILES): FCCNc1ccc(-c2cn3cc(I)ccc3n2)cc1
- logD [8]: 4.41

Structure (SMILES): COc1ccc2[nH]c3c(c2c1)CCNc1cc(Cl)ccc1-3
- logP [9]: 4.24

Structure (SMILES): Cc1ccc(C(=O)CSc2ccccc2)cc1
- logP [10]: 2.7

Structure (SMILES): CNC12CC(CN)CCC1CCc1ccccc12 (stereo not given)
- logP [11]: 2

Structure (SMILES): CC=CCOC(=O)[C@@H]1[C@@H](C=C(C)C)C1(C)C
- logP [12]: 5.09

Structure (SMILES): C[C@H](C(=O)O)c1ccc(-c2ccccc2)c(F)c1
- logD [13]: 3.87

Structure (SMILES): O=C1CN=C(c2ccccc2F)c2cc(Cl)ccc2N1CC(F)(F)F
- logP [14]: 3.36

Structure (SMILES): O=C(O)C1c2ccccc2Cc2ccccc21
- logP [15]: 2.78

Structure (SMILES): Cc1cc(=O)oc2c(C)c(OCC(O)CCl)ccc12 (stereo not given)
- logP [16]: 0.53

Structure (SMILES): O=C(CCl)Nc1ccc2ncnc(Nc3cc(Cl)c(Cl)cc3F)c2c1
- logD [17]: 4.12

Structure (SMILES): C=CCC1(C(=O)OC)C(C=C(C)C)C1(C)C (stereo not given)
- logP [12]: 4.89

Structure (SMILES): Cc1cc2oc(=O)cc(C)c2cc1OCC(O)CO (stereo not given)
- logP [16]: 0.36

Structure (SMILES): CCCCCCOC(=O)n1cnc(C)c1CSCCNC(=NC#N)NC
- logD [18]: 3.1

Structure (SMILES): CCc1c(O)c(=O)ccn1CCOC(=O)c1ccccc1
- logD [19]: 1.52

Structure (SMILES): Cc1c(O)c(=O)ccn1CCOC(=O)c1ccccc1
- logD [19]: 1.04

Structure (SMILES): CC(C)(O)c1cc(Cl)c(Nc2nc3ccncc3c3c(=O)[nH]ccc23)c(Cl)c1
- logP [20]: 1.34

Structure (SMILES): CC(C(=O)O)(c1ccccc1)c1ccccc1
- logP [15]: 2.69

Structure (SMILES): O=C(CCN1CCCC1)CN1C(=O)C2CC=CCC2C1=O (stereo not given)
- logP [6]: 1.11

Structure (SMILES): CCN(CC)CC(=O)Nc1c(C)cc(C)cc1C
- logD [21]: 2.73

Structure (SMILES): CCCCOC(=O)n1cnc(CSCCNC(=NC#N)NC)c1C
- logD [18]: 2.15

Structure (SMILES): CCCCCCCCOCCOCCOCCOCCO
- logP [4]: 2.68

Structure (SMILES): CN(C)c1ccccc1Sc1ccc(Cl)cc1N
- logD [22]: 3.55

Structure (SMILES): CN1C(C(=O)Nc2ccccn2)=C(O)c2ccccc2S1(=O)=O
- logP [23]: 1.86

Structure (SMILES): CNS(=O)(=O)Cc1ccc2[nH]cc(CCN(C)C)c2c1
- logP [24]: 1.1

Structure (SMILES): NS(=O)(=O)c1cc(Cl)c(Nc2nc3ccncc3c3c(=O)[nH]ccc23)c(Cl)c1
- logP [20]: 1.17

Structure (SMILES): COC(=O)[C@H]1O[C@@H](Oc2ccc3ccc(=O)oc3c2)[C@H](O)[C@@H](O)[C@@H]1O
- logD [5]: -1.08

Structure (SMILES): Oc1ccc([C@H]2COc3cc(O)ccc3C2)cc1
- logD [25]: 3.2

Structure (SMILES): CCCN(CC)C(CC)C(=O)Nc1c(C)cccc1C (stereo not given)
- logD [21]: 3.22

Structure (SMILES): FCCCNc1ccc(-c2cn3cc(I)ccc3n2)cc1
- logD [8]: 4.6

Structure (SMILES): O=C(O)COC(=O)Cc1ccccc1Nc1c(Cl)cccc1Cl
- logP [23]: 2.7

Structure (SMILES): CC1(C)Oc2ccc(C#N)cc2C(N2CCCC2=O)C1O (stereo not given)
- logP [3]: 2.1

Structure (SMILES): CNC12CCCCC1CC(C)c1ccccc12 (stereo not given)
- logP [11]: 3.96

Structure (SMILES): O=C(O)Cc1sc(-c2ccccc2)nc1-c1ccc(Cl)cc1
- logD [13]: 2.72

Structure (SMILES): Cc1ccc(SCC(=O)c2ccc(Cl)cc2)cc1
- logP [10]: 3.43

Structure (SMILES): CC(C)N(CCC(CCN1CCCCC1)(C(N)=O)c1ccccc1Cl)C(C)C (stereo not given)
- logP [26]: 4.78

Structure (SMILES): CCCCCCN1CCN(Cc2ccc(Cl)nc2)C1=N[N+](=O)[O-]
- logP [27]: 2.2

Structure (SMILES): CSc1cccc(N(C)C(=N)Nc2cc(SC)ccc2Cl)c1
- logP [1]: 2.68

Structure (SMILES): Fc1ccccc1C1=NCC(=S)N(CC(F)(F)F)c2ccc(Cl)cc21
- logP [14]: 4.03

Structure (SMILES): CCCCCCCCOC(=O)OC[C@@H]1O[C@H](n2ccc(N)nc2=O)CS1
- logP [2]: 1.72

Structure (SMILES): O=C(CCl)Nc1cc2c(Nc3cc(Cl)c(Cl)cc3F)ncnc2cc1OCCOCCOCCOCCOCCOCCF
- logD [17]: 4.75

Structure (SMILES): O=c1c(-c2ccc(O)cc2)coc2cc(O[C@@H]3O[C@H](CO)[C@@H](O)[C@H](O)[C@H]3O)ccc12
- logD [25]: 0.32

Structure (SMILES): CCCOC(=O)[C@H](CS)NCCN[C@@H](CS)C(=O)OCCC
- logD [28]: 2.5

Structure (SMILES): CC(C)(C)NC[C@H](O)COc1ccccc1C1CCCC1
- logD [29]: 3.61

Structure (SMILES): CN(C)CCN(Cc1ccccc1)c1ccccn1
- logP [24]: 2.65

Structure (SMILES): Cc1cc(-c2ccc(N)c(C)c2)ccc1N
- logD ([30]; pH 5.8): 2.34

Structure (SMILES): CN(C)C(=O)O[C@H]1N=C(c2ccccc2)c2cc(Cl)ccc2N(C)C1=O
- logD [7]: 2.88

Structure (SMILES): CC(CC(=O)O)c1ccc(OCc2ccccc2)cc1 (stereo not given)
- logD [31]: 3.58

Structure (SMILES): COc1c(C)c(O)cc2c1C(=O)c1ccccc1C2=O
- logD [32]: 2.83

Structure (SMILES): CC(C)(C)NCC(O)COc1cccc2c1CCC(=O)N2 (stereo not given)
- logD [29]: 1.49

Structure (SMILES): O=C(O)CCc1ccc(OCc2ccccc2)cc1
- logD [31]: 3.31

Structure (SMILES): CO[C@@]1(NC(=O)C(C(=O)O)c2ccc(O)cc2)C(=O)N2C(C(=O)O)=C(CSc3nnnn3C)CO[C@@H]21 (stereo not given in full)
- logD ([30]; pH 2.0): -0.58

Structure (SMILES): O=[N+]([O-])N=C1N(Cc2ccccc2)CCN1Cc1ccc(Cl)nc1
- logP [27]: 1.49

Structure (SMILES): COc1ccc2[nH]c3c4ccc(Cl)cc4ncc3c2c1
- logP [9]: 4.49

Structure (SMILES): Cc1c(O)cc2c(c1O)C(=O)c1ccccc1C2=O
- logD [32]: 2.36

Structure (SMILES): NC(=O)C(CCN1CCCCC1)c1ccccc1Cl (stereo not given)
- logP [26]: 2.46

Structure (SMILES): O=C(NCC(F)(F)F)NS(=O)(=O)c1cnccc1NC1CCCCCC1
- logP: 0.95

Structure (SMILES): CCCCOC(=O)[C@H](CS)NCCN[C@@H](CS)C(=O)OCCCC
- logD [28]: 2.9
